Where two headings read alike, the source gives them in different places.

For test [1] the following is noted: acute thermal, persistent, inflammatory and neuropathic pain models; cited from earlier work.
A further test addresses T1, human CB2 receptors (Homo sapiens, UniProt P34972).
T1 construct: expressed in transfected cells; host or cells: HEK293
Description: Human CB2 radioligand binding assay ([3H]CP-55,940 competition). In a few lines:
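Membranes from HEK293 cells stably expressing human CB2 (5 μg/well) incubated 90 min at 30 °C with 0.5 nM [3H]CP-55,940 and five concentrations of displacer (0.01 nM–10 μM) in pH 7.4 Tris/EDTA/MgCl2 buffer with fatty acid free BSA. Bound radioactivity counted after filtration; nonspecific binding defined with 10 μM unlabeled CP-55,940.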

Another test addresses T2, rat CB2 receptors (Rattus norvegicus, UniProt Q9QZN9).
T2 construct: expressed in transfected cells; host or cells: HEK293
T2 sequence (Q9QZN9 1-360): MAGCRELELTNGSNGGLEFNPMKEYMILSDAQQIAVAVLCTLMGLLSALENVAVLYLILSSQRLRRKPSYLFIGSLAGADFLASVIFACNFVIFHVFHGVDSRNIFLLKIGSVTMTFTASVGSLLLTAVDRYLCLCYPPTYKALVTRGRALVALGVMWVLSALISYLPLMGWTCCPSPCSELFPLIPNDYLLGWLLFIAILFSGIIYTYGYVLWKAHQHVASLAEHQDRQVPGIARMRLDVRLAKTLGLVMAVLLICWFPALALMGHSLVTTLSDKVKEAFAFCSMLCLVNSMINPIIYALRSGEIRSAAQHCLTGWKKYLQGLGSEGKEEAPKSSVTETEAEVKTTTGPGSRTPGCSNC
Briefly: Rat CB2 radioligand binding assay ([3H]CP-55,940 competition). The gist of the method:
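Membranes from HEK293 cells stably expressing rat CB2 (20 μg/well) incubated 45 min at 30 °C with 0.5 nM [3H]CP-55,940 and five competitor concentrations in Tris/EDTA/MgCl2 buffer with 0.5 mg/mL BSA, pH 7.4. Filtration and scintillation counting; nonspecific binding with 10 μM unlabeled CP-55,940.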

For test [2] the following is noted: neuropathic, incisional, chronic and acute inflammatory pain; cited from earlier work.
The conditions of test [3]: rat formalin model of persistent pain; cited from earlier work.
In another test the test system is microglial. The conditions noted are these: in vitro; blocked by SR144528; cited from earlier work.
The conditions of test [4]: cited from earlier work.

T1 sequence (P34972 whole entry): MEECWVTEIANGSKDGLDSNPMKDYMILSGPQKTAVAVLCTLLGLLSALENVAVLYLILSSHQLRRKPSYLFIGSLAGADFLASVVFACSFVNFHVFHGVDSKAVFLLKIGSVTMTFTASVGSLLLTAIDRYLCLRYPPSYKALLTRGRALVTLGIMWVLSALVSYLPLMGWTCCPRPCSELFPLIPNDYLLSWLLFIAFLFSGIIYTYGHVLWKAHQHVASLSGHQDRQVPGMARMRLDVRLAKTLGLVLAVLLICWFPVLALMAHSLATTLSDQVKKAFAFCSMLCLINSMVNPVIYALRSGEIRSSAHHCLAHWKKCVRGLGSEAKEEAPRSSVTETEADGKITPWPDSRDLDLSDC

On to `CN1CCCCC1Cn1cc(C(=O)c2cc([N+](=O)[O-])ccc2I)c2ccccc21` (stereo not shown) [AM-1241], for which, in test [1], the analgesic efficacy result was “exhibits robust analgesic efficacy”.
Broadly, the Ki is a dissociation constant, usually derived from enzyme kinetics or from competition with a known ligand. As for `COCc1ccc(C(F)(F)F)cc1C(=O)/N=c1\cc(C(C)(C)C)n(C)n1C[C@H]1CCCO1` [Example 110, N-{(3E)-5-tert-butyl-1-methyl-2-[(2R)-tetrahydrofuran-2-ylmethyl]-1,2-dihydro-3H-pyrazol-3-ylidene}-2-(methoxymethyl)-5-(trifluoromethyl)benzamide], the results for the Ki at human CB2 receptors and at rat CB2 receptors were 12 nM and 3 nM, respectively.
For `Cn1c(C(C)(C)C)c/c(=N\C(=O)c2cc(C(F)(F)F)ccc2CC(=O)OC(C)(C)C)n1C[C@H]1CCCO1` [Example 111, tert-butyl [2-[({(3E)-5-tert-butyl-1-methyl-2-[(2R)-tetrahydrofuran-2-ylmethyl]-1,2-dihydro-3H-pyrazol-3-ylidene}amino)carbonyl]-4-(trifluoromethyl)phenyl]acetate] the same measures were 14 nM and 12 nM.
Regarding `Cn1c(C(C)(C)C)c/c(=N\C(=O)c2cc(C(F)(F)F)ccc2N)n1C[C@H]1CCCO1` [Example 112, 2-amino-N-{(3E)-5-tert-butyl-1-methyl-2-[(2R)-tetrahydrofuran-2-ylmethyl]-1,2-dihydro-3H-pyrazol-3-ylidene}-5-(trifluoromethyl)benzamide], the Ki was determined as 3.3 nM on human CB2 receptors and 2.4 nM on rat CB2 receptors.
For `Cn1c(C(C)(C)C)c/c(=N\C(=O)c2cc(C(F)(F)F)ccc2NS(C)(=O)=O)n1C[C@H]1CCCO1` [Example 113, N-{(3E)-5-tert-butyl-1-methyl-2-[(2R)-tetrahydrofuran-2-ylmethyl]-1,2-dihydro-3H-pyrazol-3-ylidene}-2-[(methylsulfonyl)amino]-5-(trifluoromethyl)benzamide], in that order: 110 nM and 40 nM.
For `Cn1c(C(C)(C)C)c/c(=N\C(=O)c2cc(C#N)ccc2F)n1C[C@H]1CCCO1` [Example 114, N-{(3E)-5-tert-butyl-1-methyl-2-[(2R)-tetrahydrofuran-2-ylmethyl]-1,2-dihydro-3H-pyrazol-3-ylidene}-5-cyano-2-fluorobenzamide] the same measures were 41 nM and 20 nM.
Consider `COC(=O)c1cccc(C(=O)/N=c2\cc(C(C)(C)C)n(C)n2C[C@H]2CCCO2)c1` [Example 115], for which the inhibitory constant (Ki) at human CB2 receptors was 25 nM; at rat CB2 receptors, 5.4 nM.
As to `Cn1c(C(C)(C)C)c/c(=N\C(=O)c2cc(Cl)ccc2F)n1C[C@H]1CCCO1` [Example 116], the Ki came to 26 nM at human CB2 receptors and 11 nM on rat CB2 receptors.
Take `COC(=O)C12CC3CC(CC(C(=O)/N=c4\cc(C(C)(C)C)n(C)n4C[C@H]4CCCO4)(C3)C1)C2` [Example 118]: the values for the Ki on human CB2 receptors and at rat CB2 receptors were 42 nM and 14 nM, respectively.
For `Cn1c(C(C)(C)C)c/c(=N\C(=O)c2cc(C(F)(F)F)ccc2OCC2CC(=NO)C2)n1C[C@H]1CCCO1` (stereo partly drawn) [Example 119, N-{(3E)-5-tert-butyl-1-methyl-2-[(2R)-tetrahydrofuran-2-ylmethyl]-1,2-dihydro-3H-pyrazol-3-ylidene}-2-{[3-(hydroxyimino)cyclobutyl]methoxy}-5-(trifluoromethyl)benzamide] the same measures were 70 nM and 25 nM.
For `Cn1c(C(C)(C)C)c/c(=N\C(=O)c2cc(C(F)(F)F)ccc2NC(=O)OC(C)(C)C)n1C[C@H]1CCCO1` [Example 120, tert-butyl 2-[({(3E)-5-tert-butyl-1-methyl-2-[(2R)-tetrahydrofuran-2-ylmethyl]-1,2-dihydro-3H-pyrazol-3-ylidene}amino)carbonyl]-4-(trifluoromethyl)phenylcarbamate] the same measures were 1.7 nM and 2.1 nM.
With `CN(C)S(=O)(=O)Nc1ccc(C(F)(F)F)cc1C(=O)/N=c1\cc(C(C)(C)C)n(C)n1C[C@H]1CCCO1` [Example 121, N-{(3E)-5-tert-butyl-1-methyl-2-[(2R)-tetrahydrofuran-2-ylmethyl]-1,2-dihydro-3H-pyrazol-3-ylidene}-2-{[(dimethylamino)sulfonyl]amino}-5-(trifluoromethyl)benzamide], the Ki on human CB2 receptors came out at 53 nM; on rat CB2 receptors it was 15 nM.
For `C=Cc1ccc(C(F)(F)F)cc1C(=O)/N=c1\cc(C(C)(C)C)n(C)n1C[C@H]1CCCO1` [Example 122, N-{(3E)-5-tert-butyl-1-methyl-2-[(2R)-tetrahydrofuran-2-ylmethyl]-1,2-dihydro-3H-pyrazol-3-ylidene}-5-(trifluoromethyl)-2-vinylbenzamide], in that order: 8.2 nM and 1.4 nM.
For `CC(C)CS(=O)(=O)Nc1ccc(C(F)(F)F)cc1C(=O)/N=c1\cc(C(C)(C)C)n(C)n1C[C@H]1CCCO1` [Example 125, N-{(3E)-5-tert-butyl-1-methyl-2-[(2R)-tetrahydrofuran-2-ylmethyl]-1,2-dihydro-3H-pyrazol-3-ylidene}-2-[(isobutylsulfonyl)amino]-5-(trifluoromethyl)benzamide], in that order: 32 nM and 25 nM.
On to `COC(=O)Cc1ccc(C(F)(F)F)cc1C(=O)/N=c1\cc(C(C)(C)C)n(C)n1C[C@H]1CCCO1` [Example 128, methyl [2-[({(3E)-5-tert-butyl-1-methyl-2-[(2R)-tetrahydrofuran-2-ylmethyl]-1,2-dihydro-3H-pyrazol-3-ylidene}amino)carbonyl]-4-(trifluoromethyl)phenyl]acetate], for which the Ki came to 243 nM at human CB2 receptors and 107 nM on rat CB2 receptors.
For `Cn1c(C(C)(C)C)c/c(=N\C(=O)c2cc([N+](=O)[O-])ccc2F)n1C[C@H]1CCCO1` [Example 129, N-{(3E)-5-tert-butyl-1-methyl-2-[(2R)-tetrahydrofuran-2-ylmethyl]-1,2-dihydro-3H-pyrazol-3-ylidene}-2-fluoro-5-nitrobenzamide] the same measures were 8.6 nM and 2.3 nM.
For `Cn1c(C(C)(C)C)c/c(=N\C(=O)c2cccc(C#N)c2)n1C[C@H]1CCCO1` [Example 130, N-{(3E)-5-tert-butyl-1-methyl-2-[(2R)-tetrahydrofuran-2-ylmethyl]-1,2-dihydro-3H-pyrazol-3-ylidene}-3-cyanobenzamide] the same measures were 72 nM and 17 nM.
For `CCOC(=O)CCc1ccc(C(F)(F)F)cc1C(=O)/N=c1\cc(C(C)(C)C)n(C)n1C[C@H]1CCCO1` [Example 131, ethyl 3-[2-[({(3E)-5-tert-butyl-1-methyl-2-[(2R)-tetrahydrofuran-2-ylmethyl]-1,2-dihydro-3H-pyrazol-3-ylidene}amino)carbonyl]-4-(trifluoromethyl)phenyl]propanoate] the same measures were 23 nM and 18 nM.
Consider `Cn1c(C(C)(C)C)c/c(=N\C(=O)c2cc(Br)ccc2F)n1C[C@H]1CCCO1` [Example 132, 5-bromo-N-{(3E)-5-tert-butyl-1-methyl-2-[(2R)-tetrahydrofuran-2-ylmethyl]-1,2-dihydro-3H-pyrazol-3-ylidene}-2-fluorobenzamide], for which the Ki at human CB2 receptors is 15 nM; at rat CB2 receptors, 7.1 nM.
For `Cn1c(C(C)(C)C)c/c(=N\C(=O)c2cc(C(F)(F)F)ccc2Oc2ccccc2)n1C[C@H]1CCCO1` [Example 133, N-{(3E)-5-tert-butyl-1-methyl-2-[(2R)-tetrahydrofuran-2-ylmethyl]-1,2-dihydro-3H-pyrazol-3-ylidene}-2-phenoxy-5-(trifluoromethyl)benzamide] the same measures were 107 nM and 39 nM.
As to `COc1ccc2c(c1)c(CCN1CCOCC1)c(C)n2C(=O)c1cccc(Cl)c1Cl` [GW405833], in test [2], the “efficacy in pain models” value was “is efficacious”.
For `CCCCCCC(C)(C)c1cc(OC)c([C@@H]2C=C(CO)[C@@H]3C[C@H]2C3(C)C)c(OC)c1` [HU-308], the antinociceptive response entry in test [3] is “elicits an antinociceptive response”.
With `CCCC(C)(C)c1ccc2c(c1)OC(C)(C)[C@@H]1CC=C(C)C[C@@H]21` [JWH-133], the “effect on β-amyloid-induced microglial activation and neurotoxicity” value in the test with microglial was “abrogated β-amyloid-induced microglial activation and neurotoxicity”.
As to “N-({[(2Z)-5-tert-butyl-3-[(2R)-tetrahydrofuran-2-ylmethyl]-1,3,4-thiadiazol-2(3 H)-ylidene]amino}carbonyl)-L-phenylalaninamide [Example 80]”, the Ki is 28 nM at human CB2 receptors (HEK293 membranes, 0.5 nM [3H]CP-55,940, read-out: human CB2 Ki) and 38 nM on rat CB2 receptors (HEK293 membranes, 0.5 nM [3H]CP-55,940, read-out: rat CB2 Ki).
For SR144528, the ovariectomy-induced bone loss result in test [4] (mice, model for post-menopausal osteoporosis) is “reverse ovariectomy-induced bone loss”. In addition, the osteoclast activity entry in test [4] (mouse, in vivo) is reported as “inhibit osteoclast activity”.

Source of the values: patent publication US8492371B2, “Compounds as cannabinoid receptor ligands” (priority 2009, dated 2013).
